Here are results for 58 compounds from BindingDB's records for patent US20230399319 (Japan Tobacco, 2023).

The target in the test is NACHT, LRR and PYD domains-containing protein 3 (Homo sapiens, UniProt Q96P20). Briefly: Evaluation of NLRP3 Inflammasome Inhibitory Activity Assay. The method, then: The NLRP3 inflammasome inhibitory activity of test compounds were evaluated CM the basis of the inhibitory activity of the IL-1β, production in THP1-Null cells (Product Number: thp-null, InvivoGen). […] A solution containing a test compound (20 μL/well) was added to test compound-setting wells. […] The supernatant of the culture was cryonically stored (set at −20° C.) until measurement of IL-1β.
NACHT, LRR and PYD domains-containing protein 3, sequence (Q96P20 whole entry, the tested form may be a part): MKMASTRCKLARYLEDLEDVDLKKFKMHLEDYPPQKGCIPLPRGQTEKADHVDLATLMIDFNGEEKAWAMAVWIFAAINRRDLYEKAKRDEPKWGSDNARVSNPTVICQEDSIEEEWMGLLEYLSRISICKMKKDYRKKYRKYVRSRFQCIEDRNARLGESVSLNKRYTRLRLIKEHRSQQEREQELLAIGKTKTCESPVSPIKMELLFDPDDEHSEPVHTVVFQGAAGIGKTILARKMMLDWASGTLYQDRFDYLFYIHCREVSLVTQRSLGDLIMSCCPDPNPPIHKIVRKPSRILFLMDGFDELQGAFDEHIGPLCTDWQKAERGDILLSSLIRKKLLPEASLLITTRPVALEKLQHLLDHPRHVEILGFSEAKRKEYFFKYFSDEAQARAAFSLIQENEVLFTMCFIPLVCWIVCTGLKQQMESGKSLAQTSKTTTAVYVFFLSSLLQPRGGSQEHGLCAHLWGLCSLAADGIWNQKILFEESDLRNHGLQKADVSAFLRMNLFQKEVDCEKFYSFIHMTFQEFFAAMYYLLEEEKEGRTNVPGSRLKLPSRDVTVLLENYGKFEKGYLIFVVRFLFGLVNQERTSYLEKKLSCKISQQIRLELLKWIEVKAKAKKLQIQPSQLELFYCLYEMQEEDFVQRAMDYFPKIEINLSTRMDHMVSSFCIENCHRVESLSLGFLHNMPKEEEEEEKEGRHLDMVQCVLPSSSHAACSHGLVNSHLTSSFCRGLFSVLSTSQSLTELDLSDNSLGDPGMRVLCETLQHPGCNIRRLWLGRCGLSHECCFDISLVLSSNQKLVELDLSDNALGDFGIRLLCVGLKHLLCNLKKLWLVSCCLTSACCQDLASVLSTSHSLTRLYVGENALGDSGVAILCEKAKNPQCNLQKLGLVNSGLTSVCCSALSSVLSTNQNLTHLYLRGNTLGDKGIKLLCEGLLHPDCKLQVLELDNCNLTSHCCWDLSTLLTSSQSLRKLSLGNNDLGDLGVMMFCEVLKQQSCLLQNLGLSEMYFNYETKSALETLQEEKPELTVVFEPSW
The compound `COC1CCN(S(=O)(=O)NC(=O)c2coc(Nc3cc(C(F)(F)F)ccc3C)n2)C1` (stereo not drawn) [US20230399319, Example 2-199] came in with an IC50 of 160 nM. In turn, `Cc1ccc(C(F)(F)F)cc1Nc1nc(C(=O)NS(=O)(=O)N2CCC[C@H]2C(=O)N(C)C)co1` [US20230399319, Example 2-079] returned an IC50 of 280 nM. In turn, `Cc1ccc(C(F)(F)F)cc1Nc1nc(C(=O)NS(=O)(=O)N(C)CC2CCCCC2)co1` [US20230399319, Example 2-206] came in with a concentration for half-maximal inhibition (IC50) of 150 nM. `CC(=O)NCCN(C)S(=O)(=O)NC(=O)c1coc(Nc2cc(C(F)(F)F)ccc2C)n1` [US20230399319, Example 2-162]: inhibition was half-maximal at 300 nM (IC50). For the compound `Cc1ccc(C(F)(F)F)cc1Nc1nc(C(=O)NS(=O)(=O)N(C(C)C)C(C)C)co1` [US20230399319, Example 2-051], the half-maximal inhibitory concentration (IC50) was found to be 44 nM. The value for `Cc1cn(C(C)C(F)(F)F)nc1Nc1nc(C(=O)NS(=O)(=O)N2CCCOCC2)co1` (stereo not drawn) [US20230399319, Example 2-178] was 880 nM; that for `Cc1cc(Nc2nc(C(=O)NS(=O)(=O)N3CCCOCC3)co2)c(C)cc1F` [US20230399319, Example 2-339] was 30 nM; that for `Cc1cc(F)c(C(C)C)cc1Nc1nc(C(=O)NS(=O)(=O)N2CCOCC(C)(O)C2)co1` (stereo not drawn) [US20230399319, Example 2-351] was 22 nM. As for `CCC(CC)n1cc(C)c(Nc2nc(C(=O)NS(=O)(=O)N3CCCOCC3)co2)n1` [US20230399319, Example 2-168], the midpoint of inhibition, the IC50, lay at 9800 nM. For the compound `Cc1ccc(C(C)C)cc1Nc1nc(C(=O)NS(=O)(=O)N2CCOC(CN(C)C)CC2)co1` (stereo not drawn) [US20230399319, Example 2-341], it took 88 nM to reach half-maximal inhibition (IC50). Take `COCC(C)CN(C)S(=O)(=O)NC(=O)c1coc(Nc2cc(C(F)(F)F)ccc2C)n1` (stereo not drawn) [US20230399319, Example 2-296]: the IC50 is 81 nM. On to `Cc1ccc(C(F)(F)F)cc1Nc1nc(C(=O)NS(=O)(=O)N2CCC(S(C)(=O)=O)CC2)co1` [US20230399319, Example 2-018], for which half-maximal inhibition (IC50) was put at 50 nM.

Compound `Cc1ccc(C(F)(F)F)cc1Nc1nc(C(=O)NS(=O)(=O)N(C)CCc2ccccn2)co1` [US20230399319, Example 2-287] gave a 50% inhibitory concentration (IC50) of 64 nM. Consider `Cc1cc(Nc2nc(C(=O)NS(=O)(=O)N3CCCOCC3)co2)c(C(C)C)cc1F` [US20230399319, Example 2-334], for which the IC50 stood at 26 nM.

Compound `Cc1ccc(C(F)(F)F)cc1Nc1nc(C(=O)NS(=O)(=O)N(C)CC2CCCC2)co1` [US20230399319, Example 2-208] had a half-inhibitory concentration (IC50) of 89 nM. For `CN(C)S(=O)(=O)NC(=O)c1coc(Nc2cc(C(F)(F)F)ccc2C2CC2)n1` [US20230399319, Example 2-067], the IC50 worked out at 92 nM. Consider `Cc1cc(Nc2nc(C(=O)NS(=O)(=O)N3CCOC(COCC(C)(C)O)CC3)co2)c(C)cc1F` (stereo not drawn) [US20230399319, Example 2-353], for which 16 nM corresponded to half-maximal inhibition (IC50). The value for `Cc1ccc(C)c(Nc2nc(C(=O)NS(=O)(=O)N3CCCOCC3)co2)c1C` [US20230399319, Example 2-114] was 340 nM; that for `Cc1ccc(C(F)(F)F)cc1Nc1nc(C(=O)NS(=O)(=O)N2CCCC(F)(F)CC2)co1` [US20230399319, Example 2-234] was 50 nM. In turn, `COC(=O)CC1COCCN1S(=O)(=O)NC(=O)c1coc(Nc2c3c(c(Cl)c4c2CCC4)CCC3)n1` (racemic) [US20230399319, Example 73] gave an IC50 of 130 nM. Turning to `Cc1ccc(C(F)(F)F)cc1Nc1nc(C(=O)NS(=O)(=O)N2CCOCC(F)(F)C2)co1` [US20230399319, Example 2-190], the IC50 was found to be 17 nM. The value for `Cc1ccc(C(F)(F)F)cc1Nc1nc(C(=O)NS(=O)(=O)N2CCC(F)(F)C2)co1` [US20230399319, Example 2-021] was 90 nM; that for `CC1(C)CCN(S(=O)(=O)NC(=O)c2coc(Nc3c4c(c(F)c5c3CCC5)CCC4)n2)C1` [US20230399319, Example 2-009] was 380 nM; that for `Cc1ccc(C(F)(F)F)cc1Nc1nc(C(=O)NS(=O)(=O)N2CCC(C(F)(F)F)CC2)co1` [US20230399319, Example 2-024] was 31 nM. Turning to `CCC(C)n1cc(C)c(Nc2nc(C(=O)NS(=O)(=O)N3CCCOCC3)co2)n1` (stereo not drawn) [US20230399319, Example 2-200], the half-inhibitory concentration (IC50) turned out to be 1100 nM. To `CC(C)c1ccc(C(F)(F)F)cc1Nc1nc(C(=O)NS(=O)(=O)N2CCCN(C)CC2)co1` [US20230399319, Example 2-123] belongs 210 nM. `Cc1cn(C2CCCC2)nc1Nc1nc(C(=O)NS(=O)(=O)N2CCCOCC2)co1` [US20230399319, Example 2-153]: the half-inhibitory concentration (IC50) turned out to be 2300 nM. Compound `Cc1ccc(C(F)(F)F)cc1Nc1nc(C(=O)NS(=O)(=O)N2CCCC(=O)CC2)co1` [US20230399319, Example 2-149] registered a half-inhibitory concentration (IC50) of 32 nM. Compound `CC(C)c1ccc(C(C)C)c(Nc2nc(C(=O)NS(=O)(=O)N3CCCOCC3)co2)c1` [US20230399319, Example 2-071] displayed a half-maximal inhibitory concentration (IC50) of 43 nM.

The compound `CCCCS(=O)(=O)N1CCN(S(=O)(=O)NC(=O)c2coc(Nc3cc(C(F)(F)F)ccc3C)n2)CC1` [US20230399319, Example 2-247] yielded a half-maximal inhibitory concentration (IC50) of 22 nM. To `Cc1cccc(C)c1Nc1nc(C(=O)NS(=O)(=O)N2CCCOCC2)co1` [US20230399319, Example 2-115] belongs 1300 nM; to `Cc1ccc(C(F)(F)F)cc1Nc1nc(C(=O)NS(=O)(=O)N2CCCC(N(C)C)CC2)co1` (stereo not drawn) [US20230399319, Example 2-173], 120 nM. To `Cc1ccc(C(C)C)cc1Nc1nc(C(=O)NS(=O)(=O)N(C)Cc2ccccn2)co1` [US20230399319, Example 2-167] belongs 48 nM; to `COCC1CCN(S(=O)(=O)NC(=O)c2coc(Nc3cc(C(F)(F)F)ccc3C)n2)C1` (stereo not drawn) [US20230399319, Example 2-307], 69 nM. The compound `Cc1ccc(C(F)(F)F)cc1Nc1nc(C(=O)NS(=O)(=O)N2CCCC(c3ccccc3)C2)co1` (stereo not drawn) [US20230399319, Example 2-284] had a concentration for half-maximal inhibition (IC50) of 1400 nM. `CCCC1CCCN(S(=O)(=O)NC(=O)c2coc(Nc3cc(C(F)(F)F)ccc3C)n2)CC1` (stereo not drawn) [US20230399319, Example 2-233]: the half-maximal inhibitory concentration (IC50) came out at 480 nM. Compound `CC1CCN(S(=O)(=O)NC(=O)c2coc(Nc3c4c(c(F)c5c3CCC5)CCC4)n2)C1` (stereo not drawn) [US20230399319, Example 2-008] displayed an IC50 of 180 nM. `Cc1ccc(C(F)(F)F)cc1Nc1nc(C(=O)NS(=O)(=O)N2CCC(C#N)CC2)co1` [US20230399319, Example 2-109] displayed a concentration for half-maximal inhibition (IC50) of 38 nM. The compound `Cc1cn(C2CCC2)nc1Nc1nc(C(=O)NS(=O)(=O)N2CCCOCC2)co1` [US20230399319, Example 2-188] had a 50% inhibitory concentration (IC50) of 790 nM.

`COC[C@H]1CCCN1S(=O)(=O)NC(=O)c1coc(Nc2cc(C(F)(F)F)ccc2C)n1` [US20230399319, Example 2-052] yielded a half-maximal inhibitory concentration (IC50) of 130 nM. `CCCOCC1CCN(S(=O)(=O)NC(=O)c2coc(Nc3cc(C)ccc3C)n2)CCO1` (stereo not drawn) [US20230399319, Example 2-323] displayed an IC50 of 35 nM. The value for `CCCCC1(C#N)CCCN(S(=O)(=O)NC(=O)c2coc(Nc3cc(C(F)(F)F)ccc3C)n2)CC1` (stereo not drawn) [US20230399319, Example 2-249] was 30 nM; that for `Cc1ccc(C(C)CC#N)cc1Nc1nc(C(=O)NS(=O)(=O)N(C)C)co1` (stereo not drawn) [US20230399319, Example 2-096] was 1800 nM; that for `Cc1ccc(C(F)(F)F)cc1Nc1nc(C(=O)NS(=O)(=O)N2CCCC(S(=O)(=O)C(C)C)CC2)co1` (stereo not drawn) [US20230399319, Example 2-317] was 27 nM.

`Cc1ccc(C(F)(F)F)cc1Nc1nc(C(=O)NS(=O)(=O)N2CCCN(c3ncccn3)[C@H](C)C2)co1` [US20230399319, Example 2-313] gave an IC50 of 22 nM.

In turn, `Cc1ccc(C)c(Nc2nc(C(=O)NS(=O)(=O)N3CCOC(CC#N)CC3)co2)c1` (stereo not drawn) [US20230399319, Example 2-349] displayed an IC50 of 1200 nM. Regarding `Cc1ccc(C(F)(F)F)cc1Nc1nc(C(=O)NS(=O)(=O)N(C)CC(=O)N(C)C)co1` [US20230399319, Example 2-110], the IC50 was 340 nM. `Cc1cc(F)c(C(C)C)cc1Nc1nc(C(=O)NS(=O)(=O)N2CCOCC(O)C2)co1` (stereo not drawn) [US20230399319, Example 2-350] displayed an IC50 of 15 nM. Consider `CCOCC1CCN(S(=O)(=O)NC(=O)c2coc(Nc3cc(C(C)C)c(F)cc3C)n2)CCO1` (stereo not drawn) [US20230399319, Example 2-337], for which it took 13 nM to reach half-maximal inhibition (IC50). `CCOC[C@@H]1OCCN(S(=O)(=O)NC(=O)c2coc(Nc3cc(C)c(F)cc3C)n2)C[C@H]1OC` [US20230399319, Example 3-007] yielded a 50% inhibitory concentration (IC50) of 820 nM.

`CCCCS(=O)(=O)N1CCCN(S(=O)(=O)NC(=O)c2coc(Nc3cn(C(C)C)nc3C(C)C)n2)CC1` [US20230399319, Example 2-161]: 70 nM corresponded to half-maximal inhibition (IC50). Compound `Cc1cc(F)c(C(C)C)cc1Nc1nc(C(=O)NS(=O)(=O)N2CCOC(CO)CC2)co1` (stereo not drawn) [US20230399319, Example 2-348] came in with an IC50 of 28 nM. `Cc1ccc(C(F)(F)F)cc1Nc1nc(C(=O)NS(=O)(=O)N2CCC[C@@H]2C(=O)N(C)C)co1` [US20230399319, Example 2-080]: the half-maximal inhibitory concentration (IC50) worked out at 930 nM. To `Cc1noc(C2(C)CCN(S(=O)(=O)NC(=O)c3coc(Nc4cc(C(F)(F)F)ccc4C)n3)CC2)n1` [US20230399319, Example 2-285] belongs 170 nM; to `Cc1ccc(C(F)(F)F)cc1Nc1nc(C(=O)NS(=O)(=O)N(C)Cc2cccnc2)co1` [US20230399319, Example 2-134], 79 nM. Turning to `Cc1ccc(C(F)(F)F)cc1Nc1nc(C(=O)NS(=O)(=O)N2CCOC3(COC3)C2)co1` [US20230399319, Example 2-017], half-maximal inhibition (IC50) was put at 83 nM. The value for `CC(C)c1ccc(C(F)(F)F)cc1Nc1nc(C(=O)NS(=O)(=O)N2CCCC2CO)co1` (stereo not drawn) [US20230399319, Example 2-124] was 47 nM; that for `COCC1COCCN(S(=O)(=O)NC(=O)c2coc(Nc3cc(C(F)(F)F)ccc3C)n2)C1` (stereo not drawn) [US20230399319, Example 2-151] was 64 nM.

One may read the IC50 as the concentration that inhibits the measured activity by half. A high value points to a need for much substance.
